Conditions: 75 mg/kg/day i.n.

NC(=O)c1ncn([C@@H]2O[C@H](CO)[C@@H](O)[C@H]2O)n1 [Ribavirin]
Tox Controls Surv/Total (bid x 5, uninfected mice): 3/3 | Tox Controls Mean Host Weight Change (initial weight vs weight 18 h after final treatment): -1.7 g
